The test system of data set [1] is ID-8. Briefly: Cytotoxicity assay, MTT method, ID-8 cells. To be noted: read-out: Cytotoxicity (IC50, nM) ID-8. In general terms: Tetrazolium dyes change colour on reduction, which living cells bring about.
The test system of data set [2] is WI-38. Briefly: Cytotoxicity assay, MTT method, WI-38 cells. To be noted: read-out: Cytotoxicity (IC50, nM) WI-38; 72 hours of drug exposure at 37° C. under 5% CO2.
The test system of data set [3] is MX-1. Briefly: Cytotoxicity assay, MTT method, MX-1 cells. As to conditions: read-out: Cytotoxicity (IC50, nM) MX-1.
A short description of data set [4]: in vitro. As to conditions: human.
Setting [5] is: 72 hours of drug exposure at 37° C. under 5% CO2.

Like-named read-outs stand apart in the source and are kept apart here.

For `CC(=O)O[C@@]12CO[C@@H]1C[C@H](O)[C@@]1(C)C(=O)[C@H](OC(=O)C3CC3)C3=C(C)[C@@H](OC(=O)[C@H](O)[C@H](C=C(C)C)NC(=O)OC(C)(C)C)C[C@@](O)([C@@H](OC(=O)c4ccccc4)[C@H]21)C3(C)C` [SB-T-1214], the results for the IC50 in data set [1] (setting [5]), in data set [2] and in data set [3] (setting [5]) were 1.89 nM, 4.14 nM and 2.9 nM, respectively.

Take `CC(=O)O[C@H]1C(=O)[C@@]2(C)[C@H]([C@H](OC(=O)c3ccccc3)[C@]3(O)C[C@H](OC(=O)[C@H](O)[C@@H](NC(=O)c4ccccc4)c4ccccc4)C(C)=C1C3(C)C)[C@]1(OC(C)=O)CO[C@@H]1C[C@@H]2O` [Paclitaxel]: the IC50 (in general, the midpoint of a concentration-inhibition curve) in data set [1] (Mus musculus, ID8, 72 h) was 21.2 nM; in data set [3] (Homo sapiens, MX1, 72 h), 3.83 nM. Further, inhibition in data set [4] was half-maximal at 175 nM (IC50 at 72 h).

Source of the values: patent US10029014B2, “Synthesis of novel asymmetric bow-tie PAMAM dendrimer-based conjugates for tumor-targeting drug delivery” (priority 2013, dated 2018).
